Reference: US20090061515A1, “Methods of inhibiting or suppressing cellular proliferation” (priority 2007, published 2009)

Tests used:
Type in all cases: cell-based
[1] = system: human Glioblastoma/Astrocytoma U87 cells; assay: CyQuant cell proliferation after 48 hour exposure, U87 (Example 6); details: for cell proliferation: 48 hour exposure
Experimental: (§1) Evaluation of the effects of 5,6-dihydroxy-hexan-2-one on human umbilical vein endothelial cells (HUVEC) and Glioblastoma/Astrocytoma cells U87 cellular proliferation and migration during 120 hours following 48 hour exposure to 5,6-dihydroxy-hexan-2-one at concentration of 10 mg/ml, 1 mg/ml, 100 micrograms/ml. Controls were cells not exposed to the agent.
(§2) In order to further explore the effects of this compound, experiments to evaluate the dose-effect response on the antiproliferative effect and on cell migration were conducted on two cell lines, human umbilical vein endothelial cells (HUVEC) and Glioblastoma/Astrocytoma cells (U87), over 120 hours after 48 hours of exposure to the compound.
(§3) A cell proliferation assay available under the trade designation CyQuant from Invitrogen Corporation (Carlsbad, Calif.) determines the density of cells in culture by using a green fluorescent dye which fluoresces when bound to cellular nucleic acids.

[2] = system: Normal Human Dermal Fibroblasts (NHDF); assay: Cell growth / cell counts of NHDF during exposure and 96 hours after removal (Example 4); details: for Cell Counts after exposure and additional 96 hours with compound removed: NHDF re-seeded at 45,000 cells/well; for cell growth during exposure, in words: 24 and 48 hours of exposure
Experimental: Examination of the cell growth effects upon 24 hour and 48 hour exposure of Normal Human Dermal Fibroblasts (NHDF) to 5,6-dihydroxy-hexan-2-one. After the 24 hour or 48 hour exposures, the 5,6-dihydroxy-hexan-2-one was removed and the cells were allowed to grow for an additional 96 hours, then evaluated for growth.
The assay used was a luminescent cell viability assay available under the trade designation CellTiter-Glo from Promega Corporation (Madison, Wis.). This assay determines the number of viable cells present based on the amount of adenosine triphosphate (ATP) present from the cell cytoplasm. The concentration of ATP present is proportional to the measured amount of a luminescent signal. […] The Normal Human Dermal Fibroblasts were available from Clonetics Corporation (San Diego, Calif.).
The 5,6-dihydroxy-hexan-2-one (1.2 grams) was dissolved in 12 ml of phosphate buffered saline and was filter sterilized through a 0.22 micrometer syringe filter prior to use. The 5,6-dihydroxy-hexan-2-one was further diluted to 10^−1, 10^−2, and 10^−3 using serial dilutions for the evaluation.
NHDF were seeded at 45,000 cells/well in four 24 well plates (two testing cell growth and two to re-seed after 24 and 48 hours without 5,6-dihydroxy-hexan-2-one). 24 hours after seeding, 5,6-dihydroxy-hexan-2-one was added to the cell culture plates (2 ml/well) at a concentration of 10^−1, 10^−2, and 10^−3. Assay plates were pulled for cell growth analysis at 24 and 48 hours after addition of the chemical compound. Samples were analyzed on the above-described assay according to a published method. The other two assay plates were washed and re-seeded at 45,000 cells/well at 24 and 48 hour time points without the presence of 5,6-dihydroxy-hexan-2-one. Both plates were grown for an additional 96 hours before a cell count was taken.
To determine proliferation potential post-exposure, cells were reseeded after exposure to 5,6-dihydroxy-hexan-2-one as follows. Additional groups of cells exposed to 5,6-dihydroxy-hexan-2-one for 24 and 48 hours were then washed thoroughly to remove 5,6-dihydroxy-hexan-2-one and harvested from the culture substrate. Those cells were then plated out at the same density as before, but without exposure to 5,6-dihydroxy-hexan-2-one. These two groups were supplied with fresh media and allowed to grow for 96 additional hours. Visual representation of the 10^−1 and 10^−2 groups can be seen in FIG. 15 (10^−1, re-seeded without 5,6-dihydroxy-hexan-2-one for 96 hours) and FIG. 16 (10^−2, re-seeded without 5,6-dihydroxy-hexan-2-one for 96 hours).

[3] = system: human umbilical vein endothelial cells (HUVEC); assay: CyQuant cell proliferation after 48 hour exposure, HUVEC (Example 6); details: for cell proliferation: 48 hour exposure
Experimental: as §1, §2, §3

[4] = system: Normal Human Dermal Fibroblast (NHDF) cells; assay: Cell proliferation and viability assays (CyQuant, CellTiter-Glo, CellTiter 96), NHDF (Example 5); details: 48 hours
From the text: Multiple assays were used to test a variety of cellular properties expressed after exposure of different cells types to 5,6-dihydroxy-hexan-2-one. A cell proliferation assay available under the trade designation CyQuant from Invitrogen Corporation (Carlsbad, Calif.) determines the density of cells in culture by using a green fluorescent dye which fluoresces when bound to cellular nucleic acids. The amount of nucleic acid present is proportional to the amount of living cells in culture. […]
The amount of ATP present is proportional to the measured amount of a luminescent signal and therefore the amount of viable cells. […] The absorbance read is proportional to the amount of metabolic activity present in the cells.
Normal human dermal fibroblast (NHDF) cells and coronary artery smooth muscle cells (CASMC) in culture were exposed to 5,6-dihydroxy-hexan-2-one at concentrations of 10 microgram/ml, 1 mg/ml, and 10 mg/ml, for 48 hours, after which the cell culture wells were analyzed for cell proliferation and viability. […] FIG. 17 is a graphical representation of fibroblast cell numbers measured after 48 hours exposure to different concentrations of 5,6-dihydroxy-hexan-2-one. FIG. 18 is a graphical representation of smooth muscle cell numbers measured after 48 hours exposure to different concentrations of 5,6-dihydroxy-hexan-2-one. […]

CC(=O)CCC(O)CO (centres unmarked) [5,6-dihydroxy-hexan-2-one]
cell proliferation ([1]; U87, 10 mg/ml): antiproliferative effects
time after withdrawal at which inhibitory effect was still observed ([1]; U87, 10 mg/ml, after 48 hour exposure): ≥ 120 h
cell proliferation ([1]; U87, lowest concentration evaluated (100 micrograms/ml)): no antiproliferative effects
Cell Counts after exposure and additional 96 hours with compound removed ([2]; 0.1 mg/ml, 24 Hour Group): 200,000 cells
Cell Counts after exposure and additional 96 hours with compound removed ([2]; 0.1 mg/ml, 48 Hour Group): 207,500 cells
Cell Counts after exposure and additional 96 hours with compound removed ([2]; 1 mg/ml, 24 Hour Group): 172,000 cells
Cell Counts after exposure and additional 96 hours with compound removed ([2]; 1 mg/ml, 48 Hour Group): 165,000 cells
Cell Counts after exposure and additional 96 hours with compound removed ([2]; 10 mg/ml, 24 Hour Group): 55,000 cells
Cell Counts after exposure and additional 96 hours with compound removed ([2]; 10 mg/ml, 48 Hour Group): 65,000 cells
Cell Counts after exposure ([2]; NHDF, 0.1 mg/ml, 24 Hour Group): 180,000 cells
Cell Counts after exposure ([2]; NHDF, 0.1 mg/ml, 48 Hour Group): 305,000 cells
Cell Counts after exposure ([2]; NHDF, 1 mg/ml, 24 Hour Group): 160,000 cells
Cell Counts after exposure ([2]; NHDF, 1 mg/ml, 48 Hour Group): 150,000 cells
Cell Counts after exposure ([2]; NHDF, 10 mg/ml, 24 Hour Group): 65,000 cells
Cell Counts after exposure ([2]; NHDF, 10 mg/ml, 48 Hour Group): 80,000 cells
cell growth during exposure, in words ([2]; NHDF, 10^-1 concentration group): only a minimal amount of growth
cell growth after 96 hours without compound, in words ([2]; NHDF, 10^-1 group, after withdrawal): significant inhibition of cell growth
cell growth during exposure, in words ([2]; NHDF, 10^-2 concentration group): reduced from the control
cell growth after 96 hours without compound, in words ([2]; NHDF, 10^-2 group, after withdrawal): slight reduction of cell growth
cell growth after withdrawal, in words ([2]; NHDF, 10^-3 concentration (lowest tested), after withdrawal): behave similar to controls
cell growth during exposure, in words ([2]; NHDF, 10^-3 concentration group): continued to grow without problems
cell proliferation ([3]; 10 mg/ml): antiproliferative effects
time after withdrawal at which inhibitory effect was still observed ([3]; 10 mg/ml, after 48 hour exposure): ≥ 120 h
cell proliferation ([3]; lowest concentration evaluated (100 micrograms/ml)): no antiproliferative effects
cell proliferation ([4]; 10 mg/ml): inhibition of cell proliferation
cell proliferation ([4]; other concentrations (10 microgram/ml, 1 mg/ml)): did not show this effect
